Reference: US9913921B2, “Pretargeting kit for imaging or therapy comprising a trans-cyclooctene dienophile and a diene” (TAGWORKS PHARMACEUTICALS B.V., priority 2011, dated 2018)
One block for each molecule: values may come before it.

Tests used:
[1] = Hydrolytic stability tests of tetrazines; format: physicochemical; settings: PBS buffer, 20° C.
[2] = Reactivity of tetrazines towards trans-cyclooct-4-ene-1-ol (minor isomer), competition experiment; settings: reference 3-(5-acetamido-2-pyridyl)-6-(2-pyridyl)-1,2,4,5-tetrazine
Description: A competition experiment was performed to determine the reactivity ratio of a specific tetrazine and 3-(5-acetamido-2-pyridyl)-6-(2-pyridyl)-1,2,4,5-tetrazine (that was chosen as the reference tetrazine), in the inverse-electron demand Diels-Alder reaction with trans-cyclooct-4-ene-1-ol (minor isomer).
To acetonitrile (0.100 mL) was added 5 μL of a solution of the specific tetrazine in DMSO (25 mM) and 5 μL, of a solution of the reference tetrazine in DMSO (25 mM). This mixture was diluted with water (0.9 mL), and the absolute amounts of both tetrazines was determined by HPLC-MS/PDA analysis. Subsequently, a solution of trans-cyclooct-4-ene-1-ol (minor isomer) in DMSO (25 μL, 2.5 mM) was slowly added, and the mixture was stirred for 5 min. Again, the absolute amounts of both tetrazines was determined by HPLC-MS/PDA analysis, and conversions for both tetrazines was calculated. From these conversions, the reactivity ratio (R=k2,TCO/k2,Ref) of both tetrazines was calculated using the mathematical procedure from Ingold and Shaw (J. Chem. Soc., 1927, 2918-2926).

[3] = Stability of trans-cyclooctene derivatives; format: physicochemical; settings: PBS buffer, 20° C., in the dark, estimation
Description: 10 μL of a solution of the specific trans-cyclooctene derivative in dioxane (25 mM) was diluted with PBS buffer (3 mL), and this solution was stored at 20° C. in the dark. The faith of the TCO compound was monitored by HPLC-MS analysis, and an estimation of the half-life time was made.

[4] = Reactivity of trans-cyclooctene derivatives towards bis(2-pyridyl)-1,2,4,5-tetrazine, competition experiment; settings: for reactivity towards tetrazines compared to minor isomer of trans-cyclooct-4-ene-1-ol: in words; for Reactivity ratio (R = k2,TCO/k2,Ref): reference trans-cyclooct-4-ene-1-ol (minor isomer)
Description: A competition experiment was performed to determine the reactivity ratio of a specific trans-cyclooctene derivative and trans-cyclooct-4-ene-1-ol (minor isomer) (that was chosen as the reference trans-cyclooctene), in the inverse-electron demand Diels-Alder reaction with bis(2-pyridyl)-1,2,4,5-tetrazine.
This mixture was diluted with water (0.45 mL). Subsequently, a solution of bis(2-pyridyl)-1,2,4,5-tetrazine (6.25*10^−8 mol) in a mixture of acetonitrile (0.05 mL) and water (0.45 mL) was slowly added while stirring vigorously. After addition, the mixture was stirred for an additional 5 min. The conversion of both trans-cyclooctene derivatives was determined by HPLC-MS/PDA analysis, and from these conversions, the reactivity ratio (R=k2,TCO/k2,Ref) of the specific trans-cyclooctene derivative was calculated using the mathematical procedure from Ingold and Shaw (J. Chem. Soc., 1927, 2918-2926).

[5] = Reaction of trans-cyclooctene β-lactam derivative with tetrazine; settings: equimolar (6.25*10^−8 mol) in water, immediate discoloration, HPLC-MS
Description: (§1) To a solution of 3-(5-acetamido-2-pyridyl)-6-(2-pyridyl)-1,2,4,5-tetrazine (6.25*10^−8 mol) in water (1 mL) was added the trans-cyclooctene β-lactam derivative 25 (6.25*10^−8 mol). […] This was confirmed by HPLC-MS analysis: complete disappearance of the tetrazine signal and formation of the rDA adduct with m/z=475.33 (M+H^+).

[6] = as above; settings: equimolar (6.25*10^−8 mol) in water, immediate discoloration, HPLC-MS; remark: listed apart in the source
Description: as §1, with “3-(5-butyramido-2-pyridyl)-6-(2-pyrimidyl)-1,2,4,5-tetrazine” for “3-(5-acetamido-2-pyridyl)-6-(2-pyridyl)-1,2,4,5-tetrazine”, “m/z=504.42” for “m/z=475.33”

[7] = as above; settings: equimolar (6.25*10^−8 mol) in water, immediate discoloration, HPLC-MS; remark: listed apart in the source
Description: as §1, with “(4-(1,2,4,5-tetrazin-3-yl)phenyl)methanamine” for “3-(5-acetamido-2-pyridyl)-6-(2-pyridyl)-1,2,4,5-tetrazine”, “m/z=369.17” for “m/z=475.33”

[8] = as above; settings: equimolar (6.25*10^−8 mol) in water, immediate discoloration, HPLC-MS; remark: listed apart in the source
[9] = as above; settings: tetrazine suspension in water
Description: as §1, with “suspension” for “solution”, “3,6-diphenyl-1,2,4,5-tetrazine” for “3-(5-acetamido-2-pyridyl)-6-(2-pyridyl)-1,2,4,5-tetrazine”, “m/z=416.42” for “m/z=475.33”

half-life at 83 µM [3]: > 72 h
Structure (SMILES): O=C(O)C1C2CC/C=C/CCC21 (stereo not drawn) [compound 4, (E-endo)-Bicyclo[6.1.0]non-4-ene-9-carboxylic acid]
reactivity towards tetrazines compared to minor isomer of trans-cyclooct-4-ene-1-ol [4]: markedly increased reactivity
Reactivity ratio (R = k2,TCO/k2,Ref) ([4]; listed as drawing 42): 13.1

half-life at 83 µM [3]: ~24 h
Structure (SMILES): O=C(O)CN1C(=O)C2CC/C=C/CCC21 (stereo not shown) [compound 25, (E)-2-(10-oxo-9-azabicyclo[6.2.0]dec-4-en-9-yl)acetic acid]
reactivity towards tetrazines compared to minor isomer of trans-cyclooct-4-ene-1-ol [4]: markedly increased reactivity
Reactivity ratio (R = k2,TCO/k2,Ref) [4]: 5.4
reaction with tetrazine [5]: quantitative reaction
reaction with tetrazine [6]: quantitative reaction
reaction with tetrazine [7]: quantitative reaction
reaction with tetrazine [8]: quantitative reaction
reaction with tetrazine ([9]; equimolar (6.25*10^−8 mol), HPLC-MS): quantitative reaction
time until pink, turbid mixture became clear and colorless [9]: ≤ 15 min

half-life at 83 µM [3]: > 72 h
Structure (SMILES): O=C1N[C@H]2CC/C=C/CC[C@H]2N1 [compound 40, Cis (E)-3,3a,4,5,9,9a-hexahydro-1H-cycloocta[d]imidazol-2(8H)-one]
reactivity towards tetrazines compared to minor isomer of trans-cyclooct-4-ene-1-ol [4]: markedly increased reactivity
Reactivity ratio (R = k2,TCO/k2,Ref) [4]: 7.3

Second part, the molecule before the results:

Structure (SMILES): c1cnc(-c2nnc(-c3ncccn3)nn2)nc1
half-life at 83 µM [1]: 4.5 h
Reactivity ratio (R = k2,TZ/k2,Ref) [2]: 0.12

Structure (SMILES): O=C(O)C1C2CC/C=C/CCC21 (stereo not drawn) [compound 5, (E-exo)-Bicyclo[6.1.0]non-4-ene-9-carboxylic acid]
reactivity towards tetrazines compared to minor isomer of trans-cyclooct-4-ene-1-ol [4]: markedly increased reactivity
Reactivity ratio (R = k2,TCO/k2,Ref) ([4]; listed as drawing 43): 20.0
